Values quoted from earlier work as cited in patent US8399018B2, “Controlled release ion channel modulator compositions and methods for the treatment of otic disorders” (priority 2008, dated 2013).

Assays:
guinea pigs = conditions: chronic administration
tinnitus = conditions: administered by IV
V2-R = conditions: infusion into the scala tympani

NC(=O)CC[C@@H]1NC(=O)[C@H](Cc2ccccc2)NC(=O)[C@H](Cc2ccc(O)cc2)NC(=O)[C@@H](N)CSSC[C@@H](C(=O)N2CCC[C@H]2C(=O)N[C@@H](CCCN=C(N)N)C(=O)NCC(N)=O)NC(=O)[C@H](CC(N)=O)NC1=O [VP, vasopressin]
induction of endolymphatic hydrops (guinea pigs): induces endolymphatic hydrops

CCN(CC)CC(=O)Nc1c(C)cccc1C [Lidocaine]
sufferers in whom noise associated with tinnitus is reduced or eliminated (tinnitus): 60-80%

Cc1ccccc1C(=O)Nc1ccc(C(=O)N2CCCC(N(C)C)c3ccccc32)cc1 (stereo not drawn) [OPC-31260]
reduction of Meniere's disease symptoms (V2-R): marked reduction
